# From PubChem BioAssay (NCI)
#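 96-well plates; 48 h exposure; 5 concentrations. Endpoints by linear interpolation between flanking doses. Not reached: highest tested concentration assigned. TGI marks complete inhibition of growth.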 Residues, ends and D or L forms follow the SMILES beside them. *: point of attachment. Boc = CC(C)(C)OC(=O)*; OBn = c1ccc(CO*)cc1
# Columns and labels:
# Test in all cases: NCI-60 cell line screen, 48 h
# A498 renal = tested on: A498 renal
# SF-268 CNS = tested on: SF-268 CNS
# HCT-116 colon = tested on: HCT-116 colon
# HL-60(TB) leukemia = tested on: HL-60(TB) leukemia
# SK-OV-3 ovarian = tested on: SK-OV-3 ovarian
# UACC-257 melanoma = tested on: UACC-257 melanoma
# IGROV1 ovarian = tested on: IGROV1 ovarian
# MDA-MB-231 breast = tested on: MDA-MB-231 breast
# HCC-2998 colon = tested on: HCC-2998 colon
# SW-620 colon = tested on: SW-620 colon
# MALME-3M melanoma = tested on: MALME-3M melanoma
# RPMI-8226 leukemia = tested on: RPMI-8226 leukemia
# DU-145 prostate = tested on: DU-145 prostate
# HOP-92 NSCLC = tested on: HOP-92 NSCLC
# ACHN renal = tested on: ACHN renal
# HCT-15 colon = tested on: HCT-15 colon
# NCI/ADR-RES ovarian = tested on: NCI/ADR-RES ovarian
# OVCAR-5 ovarian = tested on: OVCAR-5 ovarian
# HOP-62 NSCLC = tested on: HOP-62 NSCLC
# A549 NSCLC = tested on: A549 NSCLC
# M14 melanoma = tested on: M14 melanoma
# U251 CNS = tested on: U251 CNS
# OVCAR-8 ovarian = tested on: OVCAR-8 ovarian
# COLO 205 colon = tested on: COLO 205 colon
# SF-539 CNS = tested on: SF-539 CNS
# UO-31 renal = tested on: UO-31 renal
# NCI-H522 lung = tested on: NCI-H522 lung
# HT29 colon = tested on: HT29 colon
# MDA-N = tested on: MDA-N
# SNB-19 CNS = tested on: SNB-19 CNS
# OVCAR-3 ovarian = tested on: OVCAR-3 ovarian
# NCI-H460 lung = tested on: NCI-H460 lung
# EKVX NSCLC = tested on: EKVX NSCLC
# UACC-62 melanoma = tested on: UACC-62 melanoma
# MDA-MB-435 = tested on: MDA-MB-435
# SN12C renal = tested on: SN12C renal
# LOX IMVI melanoma = tested on: LOX IMVI melanoma
# NCI-H226 lung = tested on: NCI-H226 lung
# SF-295 CNS = tested on: SF-295 CNS
# NCI-H23 lung = tested on: NCI-H23 lung
# MCF7 breast = tested on: MCF7 breast
# T-47D breast = tested on: T-47D breast
# 786-0 renal = tested on: 786-0 renal
# OVCAR-4 ovarian = tested on: OVCAR-4 ovarian
# PC-3 prostate = tested on: PC-3 prostate
# BT-549 breast = tested on: BT-549 breast
# HS 578T breast = tested on: HS 578T breast
# CAKI-1 renal = tested on: CAKI-1 renal
# SR leukemia = tested on: SR leukemia
# TK-10 renal = tested on: TK-10 renal
# RXF 393 renal = tested on: RXF 393 renal
# SK-MEL-28 melanoma = tested on: SK-MEL-28 melanoma
# SK-MEL-2 melanoma = tested on: SK-MEL-2 melanoma
# KM12 colon = tested on: KM12 colon
# SNB-75 CNS = tested on: SNB-75 CNS
# CCRF-CEM leukemia = tested on: CCRF-CEM leukemia
# MOLT-4 leukemia = tested on: MOLT-4 leukemia
# K-562 leukemia = tested on: K-562 leukemia
# SK-MEL-5 melanoma = tested on: SK-MEL-5 melanoma
smiles,measurement,setting,value
CO[C@@H]1C[C@H](OC(N)=O)[C@@H]2C=C[C@@H]3/C=C(C)/C=C/[C@@H](C)[C@H]([C@H](C)[C@H](O)[C@@H](C)NC(C)=O)OC(=O)/C=C/C=C(C)\C=C\[C@]3(C)[C@@H]2C1,TGI,A498 renal,0.496 µM
same,TGI,SF-268 CNS,4.95 µM
same,TGI,HCT-116 colon,1.25 µM
same,TGI,HL-60(TB) leukemia,3.32 µM
same,TGI,SK-OV-3 ovarian,3.66 µM
same,TGI,UACC-257 melanoma,3.04 µM
same,TGI,IGROV1 ovarian,3.28 µM
same,TGI,MDA-MB-231 breast,0.0634 µM
same,TGI,HCC-2998 colon,1.39 µM
same,TGI,SW-620 colon,10.3 µM
same,TGI,MALME-3M melanoma,3.53 µM
same,TGI,RPMI-8226 leukemia,3.78 µM
same,TGI,DU-145 prostate,9.01 µM
same,TGI,HOP-92 NSCLC,< 0.01 µM
same,TGI,ACHN renal,2.67 µM
same,TGI,HCT-15 colon,6.77 µM
same,TGI,NCI/ADR-RES ovarian,6.11 µM
same,TGI,OVCAR-5 ovarian,9.19 µM
same,TGI,HOP-62 NSCLC,4.81 µM
same,TGI,A549 NSCLC,10 µM
same,TGI,M14 melanoma,1.62 µM
same,TGI,U251 CNS,1.61 µM
same,TGI,OVCAR-8 ovarian,13.6 µM
same,TGI,COLO 205 colon,11.1 µM
same,TGI,SF-539 CNS,1.46 µM
same,TGI,UO-31 renal,0.645 µM
same,TGI,NCI-H522 lung,1.44 µM
same,TGI,HT29 colon,1.93 µM
same,TGI,MDA-N,6.03 µM
same,TGI,SNB-19 CNS,17.7 µM
same,TGI,OVCAR-3 ovarian,3.65 µM
same,TGI,NCI-H460 lung,1.58 µM
same,TGI,EKVX NSCLC,5.34 µM
same,TGI,UACC-62 melanoma,1.4 µM
same,TGI,MDA-MB-435,4.36 µM
same,TGI,SN12C renal,8.72 µM
same,TGI,LOX IMVI melanoma,< 0.01 µM
same,TGI,NCI-H226 lung,< 0.01 µM
same,TGI,SF-295 CNS,1.51 µM
same,TGI,NCI-H23 lung,13.1 µM
same,TGI,MCF7 breast,11.3 µM
same,TGI,T-47D breast,11 µM
same,TGI,786-0 renal,6.62 µM
same,TGI,OVCAR-4 ovarian,9.75 µM
same,TGI,PC-3 prostate,10.8 µM
same,TGI,BT-549 breast,> 28.5 µM
same,TGI,HS 578T breast,0.264 µM
same,TGI,CAKI-1 renal,2.67 µM
same,TGI,SR leukemia,0.887 µM
same,TGI,TK-10 renal,3.55 µM
same,TGI,RXF 393 renal,3.06 µM
same,TGI,SK-MEL-28 melanoma,1.84 µM
same,TGI,SK-MEL-2 melanoma,7.09 µM
CC[C@]12C=CCN3CC[C@@]4(c5cc(N=O)c(OC)cc5N(C)[C@H]4[C@@](O)(C(=O)NC(Cc4c[nH]c5ccccc45)C(=O)OC)[C@@H]1O)[C@@H]32 (stereo partly drawn),TGI,A498 renal,> 100 µM
same,TGI,SF-268 CNS,> 100 µM
same,TGI,HCT-116 colon,28.3 µM
same,TGI,HL-60(TB) leukemia,14.7 µM
same,TGI,SK-OV-3 ovarian,38.9 µM
same,TGI,UACC-257 melanoma,29.6 µM
same,TGI,IGROV1 ovarian,34.9 µM
same,TGI,MDA-MB-231 breast,34.7 µM
same,TGI,HCC-2998 colon,29 µM
same,TGI,SW-620 colon,29.7 µM
same,TGI,MALME-3M melanoma,34.8 µM
same,TGI,DU-145 prostate,30.9 µM
same,TGI,HOP-92 NSCLC,28.8 µM
same,TGI,ACHN renal,35.5 µM
same,TGI,KM12 colon,26.1 µM
same,TGI,HCT-15 colon,44.7 µM
same,TGI,NCI/ADR-RES ovarian,> 100 µM
same,TGI,OVCAR-5 ovarian,43.1 µM
same,TGI,HOP-62 NSCLC,34.6 µM
same,TGI,SNB-75 CNS,29.4 µM
same,TGI,CCRF-CEM leukemia,24.3 µM
same,TGI,A549 NSCLC,> 100 µM
same,TGI,M14 melanoma,41.1 µM
same,TGI,U251 CNS,21.7 µM
same,TGI,OVCAR-8 ovarian,42.6 µM
same,TGI,COLO 205 colon,29.2 µM
same,TGI,SF-539 CNS,30.5 µM
same,TGI,UO-31 renal,45.3 µM
same,TGI,NCI-H522 lung,6.75 µM
same,TGI,HT29 colon,29.3 µM
same,TGI,MDA-N,46.6 µM
same,TGI,SNB-19 CNS,71.3 µM
same,TGI,OVCAR-3 ovarian,28.6 µM
same,TGI,NCI-H460 lung,38.7 µM
same,TGI,MOLT-4 leukemia,27.9 µM
same,TGI,EKVX NSCLC,52.2 µM
same,TGI,UACC-62 melanoma,29.6 µM
same,TGI,MDA-MB-435,33.3 µM
same,TGI,SN12C renal,71.5 µM
same,TGI,LOX IMVI melanoma,47 µM
same,TGI,NCI-H226 lung,52.4 µM
same,TGI,K-562 leukemia,31.4 µM
same,TGI,SF-295 CNS,32.7 µM
same,TGI,NCI-H23 lung,38.5 µM
same,TGI,MCF7 breast,35.2 µM
same,TGI,T-47D breast,32 µM
same,TGI,786-0 renal,> 100 µM
same,TGI,OVCAR-4 ovarian,29.2 µM
same,TGI,PC-3 prostate,23.9 µM
same,TGI,BT-549 breast,29.8 µM
same,TGI,HS 578T breast,> 100 µM
same,TGI,CAKI-1 renal,31.9 µM
same,TGI,SR leukemia,54.7 µM
same,TGI,TK-10 renal,31.7 µM
same,TGI,RXF 393 renal,26.9 µM
same,TGI,SK-MEL-5 melanoma,28 µM
same,TGI,SK-MEL-28 melanoma,86.8 µM
same,TGI,SK-MEL-2 melanoma,34.1 µM
CC(C)CC(NC(=O)OC(C)(C)C)C(=O)NC(CC(=O)OCc1ccccc1)C(N)=O (stereo not drawn) (Boc-Leu-Asp(OBn)-NH2; configuration not given here),TGI,A498 renal,> 100 µM
same,TGI,SF-268 CNS,> 100 µM
same,TGI,HCT-116 colon,> 100 µM
same,TGI,SK-OV-3 ovarian,> 100 µM
same,TGI,UACC-257 melanoma,> 100 µM
same,TGI,IGROV1 ovarian,> 100 µM
same,TGI,MDA-MB-231 breast,> 100 µM
same,TGI,SW-620 colon,> 100 µM
same,TGI,MALME-3M melanoma,> 100 µM
same,TGI,DU-145 prostate,> 100 µM
same,TGI,HOP-92 NSCLC,> 100 µM
same,TGI,ACHN renal,> 100 µM
same,TGI,KM12 colon,> 100 µM
same,TGI,HCT-15 colon,> 100 µM
same,TGI,NCI/ADR-RES ovarian,> 100 µM
same,TGI,OVCAR-5 ovarian,> 100 µM
same,TGI,SNB-75 CNS,> 100 µM
same,TGI,A549 NSCLC,> 100 µM
same,TGI,M14 melanoma,> 100 µM
same,TGI,U251 CNS,> 100 µM
same,TGI,OVCAR-8 ovarian,> 100 µM
same,TGI,COLO 205 colon,> 100 µM
same,TGI,SF-539 CNS,> 100 µM
same,TGI,UO-31 renal,> 100 µM
same,TGI,NCI-H522 lung,> 100 µM
same,TGI,HT29 colon,> 100 µM
same,TGI,MDA-N,> 100 µM
same,TGI,SNB-19 CNS,> 100 µM
same,TGI,OVCAR-3 ovarian,> 100 µM
same,TGI,EKVX NSCLC,> 100 µM
same,TGI,UACC-62 melanoma,> 100 µM
same,TGI,MDA-MB-435,> 100 µM
same,TGI,SN12C renal,> 100 µM
same,TGI,LOX IMVI melanoma,> 100 µM
same,TGI,NCI-H226 lung,> 100 µM
same,TGI,K-562 leukemia,> 100 µM
same,TGI,SF-295 CNS,> 100 µM
same,TGI,NCI-H23 lung,> 100 µM
same,TGI,MCF7 breast,> 100 µM
same,TGI,T-47D breast,> 100 µM
same,TGI,786-0 renal,> 100 µM
same,TGI,OVCAR-4 ovarian,> 100 µM
same,TGI,PC-3 prostate,> 100 µM
same,TGI,BT-549 breast,> 100 µM
same,TGI,HS 578T breast,> 100 µM
same,TGI,CAKI-1 renal,> 100 µM
same,TGI,SR leukemia,> 100 µM
same,TGI,TK-10 renal,> 100 µM
same,TGI,RXF 393 renal,> 100 µM
same,TGI,SK-MEL-5 melanoma,> 100 µM
same,TGI,SK-MEL-28 melanoma,> 100 µM
same,TGI,SK-MEL-2 melanoma,> 100 µM
